Source: patent US20250034216A1, “STEREOSELECTIVE COVALENT LIGANDS FOR ONCOGENIC AND IMMUNOLOGICAL PROTEINS” (The Scripps Research Institute, priority 2021, published 2025)

Experiments:
Experiment in all cases: IA-DTB cysteine engagement
Type in all cases: binding
Conditions in all cases: 22Rv1 cells, 20 μM probe, 1 h, relative to DMSO
ZFC3H1_C1778 = target: T1, ZFC3H1_C1778 (Homo sapiens, UniProt O60293)
T1 construct: endogenous in cells; host or cells: 22Rv1
In short: (§1)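 In-situ probe treatment of cells; lysate 2 mg/mL, IA-DTB 1 h RT; MeOH/CHCl3 precipitation, DTT/iodoacetamide, trypsin; streptavidin enrichment; TMT labeling, high-pH fractionation. Ratio = TMT reporter intensity / mean DMSO channels, median-normalized.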

TRMT61A_C209 = target: T2, TRMT61A_C209 (Homo sapiens, UniProt Q96FX7)
T2 construct: endogenous in cells; host or cells: 22Rv1
In short: as §1

PRORP_C507 = target: T3, PRORP_C507 (Homo sapiens, UniProt O15091)
T3 construct: endogenous in cells; host or cells: 22Rv1
T3 sequence (O15091 46-583): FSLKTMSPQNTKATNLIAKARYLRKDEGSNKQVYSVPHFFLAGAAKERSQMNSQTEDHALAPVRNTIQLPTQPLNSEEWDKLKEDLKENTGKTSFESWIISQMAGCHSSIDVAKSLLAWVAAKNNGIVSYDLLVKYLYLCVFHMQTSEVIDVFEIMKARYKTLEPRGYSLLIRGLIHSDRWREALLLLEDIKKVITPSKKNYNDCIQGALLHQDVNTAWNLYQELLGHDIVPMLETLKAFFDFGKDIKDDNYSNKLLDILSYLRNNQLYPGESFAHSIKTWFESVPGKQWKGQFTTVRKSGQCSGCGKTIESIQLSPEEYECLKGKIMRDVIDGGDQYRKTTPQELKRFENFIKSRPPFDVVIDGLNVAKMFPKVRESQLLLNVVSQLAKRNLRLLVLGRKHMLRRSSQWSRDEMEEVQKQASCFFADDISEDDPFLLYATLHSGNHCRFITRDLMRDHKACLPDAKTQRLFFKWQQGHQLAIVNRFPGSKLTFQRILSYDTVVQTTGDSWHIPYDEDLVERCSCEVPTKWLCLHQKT
In short: as §1

CUL5_C112 = target: T4, CUL5_C112 (Homo sapiens, UniProt Q93034)
T4 construct: endogenous in cells; host or cells: 22Rv1
T4 sequence (Q93034 1-780): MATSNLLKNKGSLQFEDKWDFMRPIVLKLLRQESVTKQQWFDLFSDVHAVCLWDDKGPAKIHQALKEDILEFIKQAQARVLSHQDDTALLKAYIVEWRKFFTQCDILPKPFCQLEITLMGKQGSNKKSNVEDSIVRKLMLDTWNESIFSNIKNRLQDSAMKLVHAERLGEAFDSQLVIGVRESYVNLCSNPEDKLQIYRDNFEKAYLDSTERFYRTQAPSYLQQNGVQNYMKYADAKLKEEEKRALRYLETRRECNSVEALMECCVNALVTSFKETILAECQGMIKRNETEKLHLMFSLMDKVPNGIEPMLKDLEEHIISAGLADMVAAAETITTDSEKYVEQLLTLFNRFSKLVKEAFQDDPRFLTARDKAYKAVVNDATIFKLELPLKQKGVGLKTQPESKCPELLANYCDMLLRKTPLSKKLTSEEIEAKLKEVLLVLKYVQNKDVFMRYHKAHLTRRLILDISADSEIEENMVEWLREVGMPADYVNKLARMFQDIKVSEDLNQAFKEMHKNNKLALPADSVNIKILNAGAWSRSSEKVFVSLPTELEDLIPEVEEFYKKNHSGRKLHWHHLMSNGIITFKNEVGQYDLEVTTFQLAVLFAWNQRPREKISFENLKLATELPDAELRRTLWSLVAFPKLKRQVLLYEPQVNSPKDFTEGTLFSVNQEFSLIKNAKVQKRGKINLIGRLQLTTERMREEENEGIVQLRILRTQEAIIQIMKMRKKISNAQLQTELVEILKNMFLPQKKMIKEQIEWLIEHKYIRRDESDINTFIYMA
In short: as §1

T1 sequence (O60293 whole entry): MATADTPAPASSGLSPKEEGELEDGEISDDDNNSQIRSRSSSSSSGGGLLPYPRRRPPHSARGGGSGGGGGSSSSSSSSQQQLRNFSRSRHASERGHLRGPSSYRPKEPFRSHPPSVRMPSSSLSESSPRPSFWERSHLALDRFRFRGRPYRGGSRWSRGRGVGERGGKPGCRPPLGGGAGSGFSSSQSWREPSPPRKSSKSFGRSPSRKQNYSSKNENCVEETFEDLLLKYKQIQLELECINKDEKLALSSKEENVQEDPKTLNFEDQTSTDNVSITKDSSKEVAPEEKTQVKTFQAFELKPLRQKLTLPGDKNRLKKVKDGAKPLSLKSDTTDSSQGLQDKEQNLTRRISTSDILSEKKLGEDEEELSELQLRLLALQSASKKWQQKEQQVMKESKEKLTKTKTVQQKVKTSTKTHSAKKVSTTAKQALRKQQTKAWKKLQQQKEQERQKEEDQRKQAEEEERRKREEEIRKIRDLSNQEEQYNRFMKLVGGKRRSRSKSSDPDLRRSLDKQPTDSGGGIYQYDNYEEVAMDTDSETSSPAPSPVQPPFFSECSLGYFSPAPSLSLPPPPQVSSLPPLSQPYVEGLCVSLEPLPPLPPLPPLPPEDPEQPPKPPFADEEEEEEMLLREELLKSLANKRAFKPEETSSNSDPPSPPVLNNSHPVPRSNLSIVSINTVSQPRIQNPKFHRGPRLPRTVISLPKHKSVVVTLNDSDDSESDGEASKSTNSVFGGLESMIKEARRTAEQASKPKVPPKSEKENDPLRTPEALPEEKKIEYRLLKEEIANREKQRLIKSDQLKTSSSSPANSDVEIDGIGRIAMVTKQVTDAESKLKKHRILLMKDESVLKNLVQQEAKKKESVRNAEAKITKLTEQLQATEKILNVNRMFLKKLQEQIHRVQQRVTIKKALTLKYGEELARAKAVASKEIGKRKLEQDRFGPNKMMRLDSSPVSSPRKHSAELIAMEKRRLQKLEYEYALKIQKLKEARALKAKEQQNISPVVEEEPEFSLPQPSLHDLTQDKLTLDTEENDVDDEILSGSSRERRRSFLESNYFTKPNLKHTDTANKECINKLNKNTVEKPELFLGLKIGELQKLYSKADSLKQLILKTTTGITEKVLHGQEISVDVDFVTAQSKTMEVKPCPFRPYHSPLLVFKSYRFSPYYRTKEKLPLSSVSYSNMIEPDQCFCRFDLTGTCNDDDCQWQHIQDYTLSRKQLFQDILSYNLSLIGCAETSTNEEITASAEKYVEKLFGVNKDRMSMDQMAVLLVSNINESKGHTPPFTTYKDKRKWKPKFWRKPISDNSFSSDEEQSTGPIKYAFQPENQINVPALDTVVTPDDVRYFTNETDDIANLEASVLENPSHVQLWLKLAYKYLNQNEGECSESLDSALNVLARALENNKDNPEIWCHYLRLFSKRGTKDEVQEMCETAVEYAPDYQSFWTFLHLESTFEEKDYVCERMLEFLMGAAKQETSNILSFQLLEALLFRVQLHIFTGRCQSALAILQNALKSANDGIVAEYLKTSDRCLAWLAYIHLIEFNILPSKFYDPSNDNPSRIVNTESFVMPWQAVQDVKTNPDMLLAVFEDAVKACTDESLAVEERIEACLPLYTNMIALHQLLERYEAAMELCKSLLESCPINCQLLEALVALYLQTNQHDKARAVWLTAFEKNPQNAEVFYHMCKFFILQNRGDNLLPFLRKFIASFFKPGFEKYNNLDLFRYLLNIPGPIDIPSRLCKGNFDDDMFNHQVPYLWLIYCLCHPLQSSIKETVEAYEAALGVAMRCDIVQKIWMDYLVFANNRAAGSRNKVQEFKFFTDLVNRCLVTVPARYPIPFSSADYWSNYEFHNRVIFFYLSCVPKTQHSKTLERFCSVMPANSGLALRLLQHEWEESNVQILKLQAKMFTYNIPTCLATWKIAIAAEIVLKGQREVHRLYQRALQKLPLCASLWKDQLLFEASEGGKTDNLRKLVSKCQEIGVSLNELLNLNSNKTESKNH
T2 sequence (Q96FX7 whole entry): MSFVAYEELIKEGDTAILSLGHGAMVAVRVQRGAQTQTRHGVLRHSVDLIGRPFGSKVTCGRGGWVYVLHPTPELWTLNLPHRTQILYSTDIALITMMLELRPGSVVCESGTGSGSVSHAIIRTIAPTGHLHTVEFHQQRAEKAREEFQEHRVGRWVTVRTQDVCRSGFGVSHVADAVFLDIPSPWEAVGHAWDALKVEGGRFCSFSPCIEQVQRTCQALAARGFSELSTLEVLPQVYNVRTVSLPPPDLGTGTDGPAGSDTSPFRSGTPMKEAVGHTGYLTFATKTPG

Row | Structure (SMILES) | % engagement ZFC3H1_C1778 (ZFC3H1_C1778) | % engagement TRMT61A_C209 (TRMT61A_C209) | % engagement PRORP_C507 (PRORP_C507) | % engagement CUL5_C112 (CUL5_C112)
1 | C=CC(=O)N1C[C@@H](c2ccc(Br)cc2)[C@H]1C(=O)Nc1cccc2cccnc12 [MY-1A, (2S,3R)-1-acryloyl-3-(4-bromophenyl)-N-(quinolin-8-yl)azetidine-2-carboxamide] | 70.75% | 40.75% | 6.75% | 95.5%
2 | C=CC(=O)N1C[C@H](c2ccc(Br)cc2)[C@@H]1C(=O)Nc1cccc2cccnc12 [MY-1B, (2R,3S)-1-acryloyl-3-(4-bromophenyl)-N-(quinolin-8-yl)azetidine-2-carboxamide] | 7% | 67% | 74.25% | 11%
3 | C=CC(=O)N1C[C@H](c2ccc(Br)cc2)[C@H]1C(=O)Nc1cccc2cccnc12 [MY-3A, (2S,3S)-1-acryloyl-3-(4-bromophenyl)-N-(quinolin-8-yl)azetidine-2-carboxamide] | 47.75% | 18.75% | 1.25% | −14.75%
4 | C=CC(=O)N1C[C@H](c2ccc(Br)cc2)[C@H]1C(=O)Nc1cccc2cccnc12 [MY-3B, (2S,3S)-1-acryloyl-3-(4-bromophenyl)-N-(quinolin-8-yl)azetidine-2-carboxamide] | −22.75% | 56% | 34.5% | −20%
